Reference: patent US10464964B2, “Galactoside inhibitor of galectins” (Galecto Biotech AB, priority 2015, dated 2019)
In brackets after ≈: the same amount, converted by molar mass. Where two headings read alike, the source gives them in different places.

Key:
Galectin 1 = Galectin 1 (Homo sapiens, UniProt P09382); assay: fluorescence anisotropy assay, inhibition of galectin / fluorescein tagged saccharide probe interaction
galectin-3 = galectin-3 (Homo sapiens, UniProt P17931); assay: as above
Solubility = format: physicochemical
galectins = conditions: cited from earlier work
[1] = aqueous buffer, 0.1 M phosphate buffer pH 6.5, read-out: Solubility buffer
[2] = water, read-out: Solubility water

Chain of Galectin 1 (P09382 whole entry): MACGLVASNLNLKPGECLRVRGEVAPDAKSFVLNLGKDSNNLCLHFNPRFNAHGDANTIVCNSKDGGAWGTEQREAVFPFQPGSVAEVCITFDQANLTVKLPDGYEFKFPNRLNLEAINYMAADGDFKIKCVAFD
Chain of galectin-3 (P17931 whole entry): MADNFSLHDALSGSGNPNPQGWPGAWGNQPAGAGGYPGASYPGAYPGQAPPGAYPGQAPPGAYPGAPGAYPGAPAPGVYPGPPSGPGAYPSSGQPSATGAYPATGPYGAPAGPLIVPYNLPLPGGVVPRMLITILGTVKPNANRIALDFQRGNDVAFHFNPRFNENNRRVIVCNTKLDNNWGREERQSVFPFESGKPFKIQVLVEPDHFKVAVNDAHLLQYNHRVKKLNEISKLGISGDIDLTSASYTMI

| SMILES | Kd (Galectin 1) | Kd (galectin-3) | solubility (Solubility; [1]) | affinity, times lower than lactose (galectins; relative to lactose) | solubility (Solubility; [2]) | Kd (galectins; all galectins) |
| --- | --- | --- | --- | --- | --- | --- |
| Cn1cncc1-c1cn(C2C(O)[C@H](SC3O[C@H](CO)C(O)C(n4cc(-c5cncn5C)nn4)[C@H]3O)OC(CO)[C@@H]2O)nn1 (stereo in doubt) [Example S4c, 3,3′-Dideoxy-3,3′-bis-[4-(1-methyl-1H-imidazol-5-yl)-1H-1,2,3-triazol-1-yl]-1,1′-sulfanediyl-di-β-D-galactopyranoside] | 0.6 µM | 0.131 µM |  |  |  |  |
| OCC1O[C@@H](SC2O[C@H](CO)C(O)C(n3cc(-c4ccccn4)nn3)[C@H]2O)C(O)C(n2cc(-c3cc(F)c(F)c(F)c3)nn2)[C@H]1O (stereo in doubt) [Example S8d, 3,3′-Dideoxy-3-[4-(pyridin-2-yl)-1H-1,2,3-triazol-1-yl]-3′-[4-(3,4,5-trifluorophenyl)-1H-1,2,3-triazol-1-yl]-1,1′-sulfanediyl-di-β-D-galactopyranoside] | 0.038 µM | 0.001 µM | 1400 µg/mL (≈ 2100 µM) |  |  |  |
| O=C[C@H](O)[C@@H](O)[C@@H](O)[C@H](O)CO [D-galactose] |  |  |  | 50-100 times |  |  |
| OCC1O[C@@H](SC2O[C@H](CO)C(O)C(n3cc(-c4ccc(F)cn4)nn3)[C@H]2O)C(O)C(n2cc(-c3ccc(F)cn3)nn2)[C@H]1O (stereo in doubt) [Example S4a, 3,3′-Dideoxy-3,3′-bis-[4-(5-fluoro-2-pyridin-2-yl)-1H-1,2,3-triazol-1-yl]-1,1′-sulfanediyl-di-β-D-galactopyranoside] | 0.021 µM | 0.01 µM | 2600 µg/mL (≈ 4000 µM) |  | 4300 µg/mL (≈ 6610 µM) |  |
| OCC1O[C@@H](SC2O[C@H](CO)C(O)C(n3cc(-c4cccc(F)c4)nn3)[C@H]2O)C(O)[C@@H](n2cc(-c3cccc(F)c3)nn2)[C@H]1O (stereo partly drawn) [Ref 1, 3,3′-bis-[4-(3-fluorophenyl)-1H-1,2,3-triazol-1-yl]-1,1′-sulfanediyl-di-β-D-galactopyranoside, reference compound] |  |  |  |  | 400 µg/mL (≈ 617 µM) |  |
| OCC1O[C@@H](SC2O[C@H](CO)C(O)C(n3cc(-c4cncnc4)nn3)[C@H]2O)C(O)C(n2cc(-c3cc(F)c(F)c(F)c3)nn2)[C@H]1O (stereo in doubt) [Example S8b, 3,3′-Dideoxy-3-[4-(1,3-pyrimidin-5-yl)-1H-1,2,3-triazol-1-yl]-3′-[4-(3,4,5-trifluorophenyl)-1H-1,2,3-triazol-1-yl]-1,1′-sulfanediyl-di-β-D-galactopyranoside] | 0.08 µM | < 0.002 µM | 360 µg/mL (≈ 538 µM) |  |  |  |
| OCC1O[C@@H](SC2O[C@H](CO)C(O)C(n3cc(-c4ncc(F)cn4)nn3)[C@H]2O)C(O)C(n2cc(-c3cc(F)c(F)c(F)c3)nn2)[C@H]1O (stereo in doubt) [Example S8h, 3,3′-Dideoxy-3-[4-(5-fluoro-1,3-pyrimidin-2-yl)-1H-1,2,3-triazol-1-yl]-3′-[4-(3,4,5-trifluorophenyl)-1H-1,2,3-triazol-1-yl]-1,1′-sulfanediyl-di-β-D-galactopyranoside] | 0.055 µM | < 0.002 µM | 3300 µg/mL (≈ 4810 µM) |  |  |  |
| CC(=O)Nc1ccc(-c2cn(C3C(O)[C@@H](CO)OC(S[C@@H]4OC(CO)[C@H](O)C(n5cc(-c6cc(F)c(F)c(F)c6)nn5)C4O)[C@@H]3O)nn2)cn1 (stereo in doubt) [Example S8f, 3-[4-((2-acetamid-N-yl)-pyridin-5-yl)-3,3′-dideoxy-1H-1,2,3-triazol-1-yl]-3′-[4-(3,4,5-trifluorophenyl)-1H-1,2,3-triazol-1-yl]-1,1′-sulfanediyl-di-β-D-galactopyranoside] | 0.149 µM | 0.005 µM | 770 µg/mL (≈ 1060 µM) |  |  |  |
| OCC1O[C@@H](SC2O[C@H](CO)C(O)C(n3cc(-c4ccccn4)nn3)[C@H]2O)C(O)C(n2cc(-c3ccccn3)nn2)[C@H]1O (stereo in doubt) [Example S4f, 3,3′-Dideoxy-3,3′-bis-[4-(pyridin-2-yl)-1H-1,2,3-triazol-1-yl]-1,1′-sulfanediyl-di-β-D-galactopyranoside] | 0.21 µM | 0.042 µM | 450 µg/mL (≈ 732 µM) |  |  |  |
| OCC1O[C@@H](SC2O[C@H](CO)C(O)C(n3cc(-c4ccncc4)nn3)[C@H]2O)C(O)C(n2cc(-c3cc(F)c(F)c(F)c3)nn2)[C@H]1O (stereo in doubt) [Example S8e, 3,3′-Dideoxy-3-[4-(pyridin-4-yl)-1H-1,2,3-triazol-1-yl]-3′-[4-(3,4,5-trifluorophenyl)-1H-1,2,3-triazol-1-yl]-1,1′-sulfanediyl-di-β-D-galactopyranoside] | 0.072 µM | 0.001 µM | 1300 µg/mL (≈ 1950 µM) |  |  |  |
| OCC1O[C@@H](SC2O[C@H](CO)C(O)C(n3cc(-c4cccnc4)nn3)[C@H]2O)C(O)C(n2cc(-c3cc(F)c(F)c(F)c3)nn2)[C@H]1O (stereo in doubt) [Example S8a, 3,3′-3-[4-(pyridin-3-yl)-1H-1,2,3-triazol-1-yl]-3′-[4-(3,4,5-trifluorophenyl)-1H-1,2,3-triazol-1-yl]-1,1′-sulfanediyl-di-β-D-galactopyranoside] | 0.038 µM | 0.002 µM | 41 µg/mL (≈ 61.4 µM) |  |  |  |
| OCC1O[C@@H](SC2O[C@H](CO)C(O)C(n3cc(-c4ncccn4)nn3)[C@H]2O)C(O)C(n2cc(-c3cc(F)c(F)c(F)c3)nn2)[C@H]1O (stereo in doubt) [Example S8c, 3,3′-Dideoxy-3-[4-(1,3-pyrimidin-2-yl)-1H-1,2,3-triazol-1-yl]-3′-[4-(3,4,5-trifluorophenyl)-1H-1,2,3-triazol-1-yl]-1,1′-sulfanediyl-di-β-D-galactopyranoside] | 0.07 µM | < 0.002 µM | 4600 µg/mL (≈ 6880 µM) |  |  |  |
| OC[C@H]1O[C@@H](O[C@H]2[C@H](O)[C@@H](O)C(O)O[C@@H]2CO)[C@H](O)[C@@H](O)[C@H]1O (stereo partly shown) [lactose] |  |  |  |  |  | 500 to 1000 µM |
| COc1ccc(-c2cn(C3C(O)[C@@H](CO)OC(S[C@@H]4OC(CO)[C@H](O)[C@H](n5cc(-c6ccc(OC)nc6)nn5)C4O)[C@@H]3O)nn2)cn1 (stereo partly drawn) [Example S4b, 3,3′-Dideoxy-3,3′-bis-[4-(6-methoxypyridin-3-yl)-1H-1,2,3-triazol-1-yl]-1,1′-sulfanediyl-di-β-D-galactopyranoside] | 0.12 µM | 0.012 µM |  |  |  |  |
| Nc1ccc(-c2cn(C3C(O)[C@@H](CO)OC(S[C@@H]4OC(CO)[C@H](O)C(n5cc(-c6cc(F)c(F)c(F)c6)nn5)C4O)[C@@H]3O)nn2)cn1 (stereo in doubt) [Example S8g, 3-[4-(2-aminopyridin-5-yl)-3,3′-dideoxy-1H-1,2,3-triazol-1-yl]-3′-[4-(3,4,5-trifluorophenyl)-1H-1,2,3-triazol-1-yl]-1,1′-sulfanediyl-di-β-D-galactopyranoside] | 0.034 µM | < 0.002 µM | 1800 µg/mL (≈ 2640 µM) |  |  |  |
| OCC1O[C@@H](SC2O[C@H](CO)C(O)C(n3cc(-c4ccc(F)cn4)nn3)[C@H]2O)C(O)C(n2cc(-c3cc(F)c(F)c(F)c3)nn2)[C@H]1O (stereo in doubt) [Example S7, 3,3′-Dideoxy-3-[4-(5-fluoropyridin-2-yl)-1H-1,2,3-triazol-1-yl]-3′-[4-(3,4,5-trifluorophenyl)-1H-1,2,3-triazol-1-yl]-1,1′-sulfanediyl-di-β-D-galactopyranoside] | 0.04 µM | < 0.005 µM |  |  |  |  |
| OCC1O[C@@H](SC2O[C@H](CO)C(O)C(n3cc(-c4ncc(C(F)(F)F)cc4Cl)nn3)[C@H]2O)C(O)C(n2cc(-c3ncc(C(F)(F)F)cc3Cl)nn2)[C@H]1O (stereo in doubt) [Example S4d, 3,3′-Dideoxy-3,3′-bis-[4-(3-chloro-5-trifluoromethyl-pyridin-2-yl)-1H-1,2,3-triazol-1-yl]-1,1′-sulfanediyl-di-β-D-galactopyranoside] | 0.74 µM | 0.025 µM | 200 µg/mL (≈ 244 µM) |  |  |  |
| OCC1O[C@@H](S[C@@H]2O[C@H](CO)C(O)C(n3cc(-c4cncnc4)nn3)[C@H]2O)C(O)[C@@H](n2cc(-c3cncnc3)nn2)[C@H]1O (stereo partly drawn) [Example S4e, 3,3′-Dideoxy-3,3′-bis-[4-(pyrimidin-5-yl)-1H-1,2,3-triazol-1-yl]-1,1′-sulfanediyl-di-β-D-galactopyranoside] | 0.39 µM | 0.044 µM | 7 µg/mL (≈ 11.4 µM) |  |  |  |
